The assay concerns the target T1, RORc ligand binding domain (Homo sapiens, UniProt P51449).
T1 sequence (P51449 269-508 limits assumed): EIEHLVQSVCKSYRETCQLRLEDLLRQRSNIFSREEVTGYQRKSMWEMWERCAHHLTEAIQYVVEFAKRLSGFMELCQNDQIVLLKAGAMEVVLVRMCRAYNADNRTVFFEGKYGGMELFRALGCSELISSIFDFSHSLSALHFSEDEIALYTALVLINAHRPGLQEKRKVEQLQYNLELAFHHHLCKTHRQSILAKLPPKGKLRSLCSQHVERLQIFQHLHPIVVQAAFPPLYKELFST
The assay is described as follows: In Vitro RORc Ligand Binding Assay. To be noted: RORc IC50, radioligand 25-[3H]hydroxycholesterol 6 nM; 0.6 ug/mL RORc receptor; 3 h at 25° C.

On to `CC[C@@H](O)c1n[nH]c(-c2cncc([C@@]34CC[C@@H](c5cc(-c6c(F)cccc6F)nnc53)C4(C)C)n2)n1` [Example 278, (R)-1-(5-(6-((5R,8S)-3-(2,6-difluorophenyl)-9,9-dimethyl-5,6,7,8-tetrahydro-5,8-methanocinnolin-8-yl)pyrazin-2-yl)-1H-1,2,4-triazol-3-yl)propan-1-ol], for which the IC50 – broadly, the concentration at which inhibition is half-maximal – stood at 6.8 nM. `C[C@@H](O)Cc1n[nH]c(-c2cncc([C@@]34CC[C@@H](c5cc(-c6c(F)cccc6F)nnc53)C4(C)C)n2)n1` [Example 279, (R)-1-(5-(6-((5R,8S)-3-(2,6-difluorophenyl)-9,9-dimethyl-5,6,7,8-tetrahydro-5,8-methanocinnolin-8-yl)pyrazin-2-yl)-1H-1,2,4-triazol-3-yl)propan-2-ol]: the IC50 stood at 12.6 nM. `CC(C)(O)c1c[nH]c(-c2cncc([C@@]34CC[C@@H](c5cc(-c6c(F)cccc6F)nnc53)C4(C)C)n2)n1` [Example 280, 2-(2-(6-((5R,8S)-3-(2,6-difluorophenyl)-9,9-dimethyl-5,6,7,8-tetrahydro-5,8-methanocinnolin-8-yl)pyrazin-2-yl)-1H-imidazol-4-yl)propan-2-ol]: the IC50 was determined as 13.6 nM. Regarding `CC(C)(O)c1coc(-c2ccnc([C@@]34CC[C@@H](c5cc(-c6c(F)cccc6F)nnc53)C4(C)C)n2)n1` [Example 281, 2-(2-(2-((5R,8R)-3-(2,6-difluorophenyl)-9,9-dimethyl-5,6,7,8-tetrahydro-5,8-methanocinnolin-8-yl)pyrimidin-4-yl)oxazol-4-yl)propan-2-ol], the IC50 is 14.9 nM.

In turn, `COC(=O)c1ccn(-c2nccc([C@@]34CC[C@@H](c5cc(-c6c(F)cccc6F)nnc53)C4(C)C)n2)n1` [Example 282] had a half-maximal inhibitory concentration (IC50) of 4.9 nM. `CC1(C)[C@H]2CC[C@]1(c1nc(-c3nc(C(N)=O)no3)ncc1F)c1nnc(-c3c(F)cccc3F)cc12` [Example 283]: the half-inhibitory concentration (IC50) was 11.6 nM. On to `CC1(C)[C@H]2CC[C@]1(c1nccc(-n3ccc(CO)n3)n1)c1nnc(-c3c(F)cccc3F)cc12` [Example 284, (1-(2-((5R,8R)-3-(2,6-difluorophenyl)-9,9-dimethyl-5,6,7,8-tetrahydro-5,8-methanocinnolin-8-yl)pyrimidin-4-yl)-1H-pyrazol-3-yl)methanol], for which the IC50 is 27.6 nM. `CC1(C)[C@H]2CC[C@]1(c1cncc(-c3nc(C4(O)CC4)n[nH]3)n1)c1nnc(-c3c(F)cccc3F)cc12` [Example 285, 1-(5-(6-((5R,8S)-3-(2,6-difluorophenyl)-9,9-dimethyl-5,6,7,8-tetrahydro-5,8-methanocinnolin-8-yl)pyrazin-2-yl)-1H-1,2,4-triazol-3-yl)cyclopropanol] yielded an IC50 of 4.1 nM.

In turn, `CC1(C)[C@H]2CC[C@]1(c1cncc(-c3nc([C@@H](O)CO)n[nH]3)n1)c1nnc(-c3c(F)cccc3F)cc12` [Example 286, (R)-1-(5-(6-((5R,8S)-3-(2,6-difluorophenyl)-9,9-dimethyl-5,6,7,8-tetrahydro-5,8-methanocinnolin-8-yl)pyrazin-2-yl)-1H-1,2,4-triazol-3-yl)ethane-1,2-diol] registered an IC50 of 10.6 nM.

Turning to `CC1(C)[C@H]2CC[C@]1(c1nc(-n3ccc(CO)n3)ncc1F)c1nnc(-c3c(F)cccc3F)cc12` [Example 287], the half-maximal inhibitory concentration (IC50) came to 12.1 nM.

In the case of `CC1(C)[C@H]2CC[C@]1(c1nc(-c3nc(CO)no3)ncc1F)c1nnc(-c3c(F)cccc3F)cc12` [Example 288, (5-(4-((5R,8S)-3-(2,6-difluorophenyl)-9,9-dimethyl-5,6,7,8-tetrahydro-5,8-methanocinnolin-8-yl)-5-fluoropyrimidin-2-yl)-1,2,4-oxadiazol-32-(1-(4-((5R,8S)-3-(2,6-difluorophenyl)-9,9-dimethyl-5,6,7,8-tetrahydro-5,8-methanocinnolin-8-yl)pyrimidin-2-yl)-1H-pyrazol-3-yl)propan-2-ol-yl)methanol], the IC50 came out at 20.3 nM. The compound `CC1(C)[C@H]2CC[C@]1(c1ccnc(-c3ccc(=O)[nH]c3)n1)c1nnc(-c3c(F)cccc3F)cc12` [Example 289] returned an IC50 of 15.1 nM.

(Values after patent publication US10487068B2, “Pyridazine derivatives as RORc modulators” (Genentech, Inc., priority 2015, dated 2019).)
